Assay results reported in patent publication US12454527B2, “Conjugate monomethyl auristatin E to obtain a composition for treatment of prostate cancer” (priority 2019, dated 2025).
Entries after “also recorded” stand apart in the source; their conditions may differ. Non-standard residues stand in square brackets, D forms with d. Residues, ends and D or L forms follow the SMILES beside them. *: point of attachment. Dolaproine = CO[C@@H]([C@@H]1CCCN1)[C@@H](C)C(=O)O; Dil = CC[C@H](C)[C@H](NC)[C@@H](CC(=O)O)OC; X2 = C[C@@H](N*)[C@@H](O)c1ccccc1; NMeV = CN[C@H](C(=O)O)C(C)C

Assays:
[1] = Chronic toxicity study, intravenous once every 3 weeks, rats; format: in vivo
Description: (§1) Chronic toxicity study of Conjugate (1) product on Rats and rabbits.
(§2) • 1. Conjugate (I). • 2. Solubilizer Pluronic F127—in the amount, five-fold greater than the conjugate amount by weight. • 3. Diluent—Haemodes infusion solution. • 4. Dimethyl sulfoxide—in the amount of 5% of the prepared volume.
(§3) A 1 00 white ° inbred mature male rats about 2 months old with a body weight of 190-210 g and 60 sexually mature male rabbits of the Soviet Chinchilla breed about 2 months old with a body weight of […] were involved in the experiment.
(§4) The study design determined the intravenous administration of the test drugs once every 3 weeks for 3 months (a total of 4 injections) for the experiment of chronic toxicity determination. The local irritant effect of the products within intravenous administration will be studied together with the chronic toxicity study.
(§5) Each animal received the intravenous injection of the test drug or the reference drug in a volume not exceeding the acceptable volume for a single injection of 2 mL for rats and 20 mL for rabbits. The products were replaced with a Pluronic solution with DMSO in Haemodes in the control group of animals. The duration of observation for laboratory animals was 4 weeks (intermediate stage).
(§6) Apparent signs of intoxication were evaluated daily. During the study, integral indicators of animal health were recorded (see Tables 15. 16, 17).

[2] = Chronic toxicity study, intravenous once every 3 weeks, rabbits; format: in vivo
Description: as §1, §2, §3, §4, §5, §6

## CC[C@H](C)[C@@H]([C@@H](CC(=O)N1CCC[C@H]1[C@H](OC)[C@@H](C)C(=O)N[C@H](C)[C@@H](O)c1ccccc1)OC)N(C)C(=O)[C@@H](NC(=O)[C@@H](NC)C(C)C)C(C)C [MMAE, Monomethyl auristatin E] (H-[NMeV]V[Dil][Dolaproine]-X2)
[1]; male rats, group 5, 10 μg/kg intravenously 1 time in 3 weeks
  Signs of intoxication: with impaired movement; also recorded: coordination, shortness of breath,; also recorded: diarrhea; also recorded: position, tremor, the hind limb; also recorded: the hindlimb paresis; rats No. 3-5 -; also recorded: decreased motor activity, the hind; also recorded: hindlimb paresis, porphyrin secretion
[1]; male rats, group 5, 10 μg/kg, 30 Apr. 2019
  Signs of intoxication: loss of body weight: 15 to 20 g
[1]; male rats, group 5, 10 μg/kg, animals No. 1, 5, 6 and No. 3
  Necropsy: severely inflated; adrenal glands were 2-fold; also recorded: increase; blood in the kidneys, pink renal pelvis; also recorded: hemorrhages and ulcers; the kidneys were pale,; also recorded: liver was granular, palish
[1]; rats, chronic, reference drug
  Animals survived up to the second injection: only one rat animal
[1]; rats, i.v. once every 3 weeks, intermediate stage 4 weeks
  Chronic toxicity (overall): high toxicity
[2]; male rabbits, group 10, 5.4 μg/kg, after administration
  Signs of intoxication: the intake of feed and water: decreased. About a day after
[2]; male rabbits, group 10, 5.4 μg/kg, about a day after administration and before death
  Signs of intoxication: superficial respiration and adynamia
[2]; male rabbits, group 10, 5.4 μg/kg, rabbit No. 4
  Necropsy: grayish tint; thymus had hemorrhages;
[2]; rabbits, chronic, reference drug
  Animals survived up to the second injection: no rabbits
[2]; rabbits, i.v. once every 3 weeks, intermediate stage 4 weeks
  Chronic toxicity (overall): high toxicity
